Measurements as given in patent US7915238B2, “Immunomodulatory compounds and methods of use thereof” (Eisai R & D Management Co., Ltd., priority 1999, dated 2011).

Tested on: Human Whole Blood
Assay: Cytokine release in human whole blood (ELISA)
Format: cell-based
Details: FIG. 1
Method: The most readily available human system to test compound activity on monocytes/macrophages is in whole blood. Various concentrations of compounds of the invention were added as 10× stocks in 50 μl of Ca^++, Mg^++-free Hank's balanced salt solution (HBSS) followed by 50 μl of HBSS into 400 μl of heparinized whole blood obtained from normal volunteers (18-51 years old; 110-230 lb.) into the wells of plastic assay plates, for a total volume of 500 μl/well (final concentration of whole blood was 80%). After a 3-hour incubation with gentle shaking at 37° C. in a 5% CO2 atmosphere, the assay plates were centrifuged at 1000×g for 10 min. at 4° C. and plasma was drawn off and frozen at −80° C. Plasma samples were analyzed for TNF-alpha, IL-10, and IL-12 by ELISA (Genzyme Corp., Cambridge, Mass.). Each assay point was tested in triplicate.
This stimulatory activity can be compared to that of 10 ng/ml endotoxin (or LPS) present in similar incubations in the same assay.

Row | Compound | TNF-alpha release from blood-borne cells
1 | CCCCCCCCCCCCCC(=O)NC(COCC[C@@H](CCCCCCC)OC(=O)CCCCCCCCCCC)COP(=O)([O-])OCCNC(=O)NCCOP(=O)([O-])OCC(COCC[C@@H](CCCCCCC)OC(=O)CCCCCCCCCCC)NC(=O)CCCCCCCCCCCCC.[Na+].[Na+] (some centres unmarked) [ER 119327] | stimulate blood-borne cells to release TNF-alpha
2 | CCCCCC/C=C\CCCC(=O)O[C@H](CCCCCCC)CCOCC(COP(=O)([O-])OCCNC(=O)NCCOP(=O)([O-])OCC(COCC[C@@H](CCCCCCC)OC(=O)CCC/C=C\CCCCCC)NC(=O)CCCCCCCCCCCCC)NC(=O)CCCCCCCCCCCCC.[Na+].[Na+] (some centres unmarked) [ER 119328] | stimulate blood-borne cells to release TNF-alpha

Same assay, conditions: TNF-alpha release; compounds tested at 10 μM; compared to 10 ng/ml LPS; 3-hour incubation

Row | Compound | TNF-alpha release in whole blood at 10 μM compound (% of 10 ng/ml LPS response)
3 | CCCCCC/C=C\CCCC(=O)O[C@H](CCCCCCC)CCOCC(COP(=O)([O-])OCCNC(=O)C(Cc1ccc(OCCNC(=O)OC(C)(C)C)cc1)C(=O)NCCOP(=O)([O-])OCC(COCC[C@@H](CCCCCCC)OC(=O)CCC/C=C\CCCCCC)NC(=O)CC(=O)CCCCCCCCCCC)NC(=O)CC(=O)CCCCCCCCCCC.[Na+].[Na+] (some centres unmarked) [compound 019772] | 69 % of LPS
4 | CCCCCCCCCCCC(=O)CC(=O)NC(COCC[C@H](O)CCCCCCC)COP(=O)([O-])OCCNC(=O)NCCOP(=O)([O-])OCC(COCC[C@H](O)CCCCCCC)NC(=O)CC(=O)CCCCCCCCCCC.[Na+].[Na+] (some centres unmarked) [compound 112043] | 0 % of LPS
5 | CCCCCCCCCCCCCCCC(=O)OCC(COP(=O)(O)OCC(O)COP(=O)(O)OCC(COC(=O)CCCCCCCCCCCCCCC)OC(=O)CCCCCCCCCCCCCCC)OC(=O)CCCCCCCCCCCCCCC (centres unmarked) [compound 112071] | 0 % of LPS
6 | CCCCCCC=CCC=CCCCCCCC(=O)OCC(COP(=O)(O)OCC(O)COP(=O)(O)OCC(COC(=O)CCCCCCC=CCC=CCCCCCC)OC(=O)CCCCCCC=CCC=CCCCCCC)OC(=O)CCCCCCC=CCC=CCCCCCC (centres unmarked) [compound 112072] | 0 % of LPS
7 | CCCCCC/C=C\CCCC(=O)O[C@H](CCCCCCC)CCOCC(COP(=O)([O-])OCCNC(=O)NCCOP(=O)([O-])OCC(COCC[C@@H](CCCCCCC)OC(=O)CCC/C=C\CCCCCC)NC(=O)C[C@@H](CCCCCCC)OC(=O)CCC/C=C\CCCCCC)NC(=O)C[C@@H](CCCCCCC)OC(=O)CCC/C=C\CCCCCC.[Na+].[Na+] (some centres unmarked) [compound 112093] | 0 % of LPS
8 | CCCCCC/C=C\CCCC(=O)O[C@H](CCCCCCC)CC(=O)NC(COCC[C@H](O)CCCCCCC)COP(=O)([O-])OCCNC(=O)c1ccccc1C(=O)NCCOP(=O)([O-])OCC(COCC[C@H](O)CCCCCCC)NC(=O)C[C@@H](CCCCCCC)OC(=O)CCC/C=C\CCCCCC.[Na+].[Na+] (some centres unmarked) [compound 112859] | 0 % of LPS
9 | CCCCCC/C=C\CCCC(=O)O[C@H](CCCCCCC)CC(=O)NC(COCC[C@H](O)CCCCCCC)COP(=O)([O-])OCCNC(=O)c1cccc(C(=O)NCCOP(=O)([O-])OCC(COCC[C@H](O)CCCCCCC)NC(=O)C[C@@H](CCCCCCC)OC(=O)CCC/C=C\CCCCCC)c1.[Na+].[Na+] (some centres unmarked) [compound 112860] | 0 % of LPS
10 | CCCCCC/C=C\CCCC(=O)O[C@H](CCCCCCC)CC(=O)NC(COCC[C@H](O)CCCCCCC)COP(=O)([O-])OCCNC(=O)c1ccc(C(=O)NCCOP(=O)([O-])OCC(COCC[C@H](O)CCCCCCC)NC(=O)C[C@@H](CCCCCCC)OC(=O)CCC/C=C\CCCCCC)cc1.[Na+].[Na+] (some centres unmarked) [compound 112861] | 0 % of LPS
11 | CCCCCC/C=C\CCCC(=O)O[C@H](CCCCCCC)CC(=O)NC(COCC[C@H](O)CCCCCCC)COP(=O)([O-])OCCNC(=O)C1OC(C)(C)OC1C(=O)NCCOP(=O)([O-])OCC(COCC[C@H](O)CCCCCCC)NC(=O)C[C@@H](CCCCCCC)OC(=O)CCC/C=C\CCCCCC.[Na+].[Na+] (some centres unmarked) [compound 113634] | 0 % of LPS
12 | CCCCCC/C=C\CCCC(=O)O[C@H](CCCCCCC)CC(=O)NC(COCC[C@H](O)CCCCCCC)COP(=O)([O-])OCCNC(=O)c1cc(O)cc(C(=O)NCCOP(=O)([O-])OCC(COCC[C@H](O)CCCCCCC)NC(=O)C[C@@H](CCCCCCC)OC(=O)CCC/C=C\CCCCCC)c1.[Na+].[Na+] (some centres unmarked) [compound 113635] | 0 % of LPS
13 | CCCCCC/C=C\CCCC(=O)O[C@H](CCCCCCC)CCOCC(COP(=O)([O-])OCCNC(=O)C(Cc1ccc(O)cc1)C(=O)NCCOP(=O)([O-])OCC(COCC[C@@H](CCCCCCC)OC(=O)CCC/C=C\CCCCCC)NC(=O)CC(=O)CCCCCCCCCCC)NC(=O)CC(=O)CCCCCCCCCCC.[Na+].[Na+] (some centres unmarked) [compound 118023] | 63 % of LPS
14 | CCCCCC/C=C\CCCC(=O)O[C@H](CCCCCCC)CCOCC(COP(=O)([O-])OCCNC(=O)CC(=O)NCCOP(=O)([O-])OCC(COCC[C@@H](CCCCCCC)OC(=O)CCC/C=C\CCCCCC)NC(=O)CCCCCCCCCCCCC)NC(=O)CCCCCCCCCCCCC.[Na+].[Na+] (some centres unmarked) [compound 118989] | 159 % of LPS
15 | CCCCCC/C=C\CCCC(=O)O[C@H](CCCCCCC)CCOCC(COP(=O)([O-])OCCNC(=O)CC(=O)NCCOP(=O)([O-])OCC(COCC[C@@H](CCCCCCC)OC(=O)CCC/C=C\CCCCCC)NC(=O)CCCCCCCCCCC)NC(=O)CCCCCCCCCCC.[Na+].[Na+] (some centres unmarked) [compound 118999] | 105 % of LPS
16 | CCCCCC/C=C\CCCC(=O)O[C@H](CCCCCCC)CCOCC(COP(=O)([O-])OCCNC(=O)CC(=O)NCCOP(=O)([O-])OCC(COCC[C@@H](CCCCCCC)OC(=O)CCC/C=C\CCCCCC)NC(=O)CCCCCCCCCCCCCCC)NC(=O)CCCCCCCCCCCCCCC.[Na+].[Na+] (some centres unmarked) [compound 119000] | 60 % of LPS
17 | CCCCCC/C=C\CCCC(=O)O[C@H](CCCCCCC)CCOCC(COP(=O)([O-])OCCNC(=O)CC(=O)NCCOP(=O)([O-])OCC(COCC[C@@H](CCCCCCC)OC(=O)CCC/C=C\CCCCCC)NC(=O)C[C@H](O)CCCCCCCCCCC)NC(=O)C[C@H](O)CCCCCCCCCCC.[Na+].[Na+] (some centres unmarked) [compound 119001] | 113 % of LPS
18 | CCCCCCCCCCCCCC(=O)NC(COCC[C@@H](CCCCCCC)OC(=O)CCCCCCCCCCC)COP(=O)([O-])OCCNC(=O)NCCOP(=O)([O-])OCC(COCC[C@@H](CCCCCCC)OC(=O)CCCCCCCCCCC)NC(=O)CCCCCCCCCCCCC.[Na+].[Na+] (some centres unmarked) [compound 119327] | 165 ± 33 (n = 3) % of LPS
19 | CCCCCC/C=C\CCCC(=O)O[C@H](CCCCCCC)CCOCC(COP(=O)([O-])OCCNC(=O)C(Cc1ccc(OCCNC(=O)OC(C)(C)C)cc1)C(=O)NCCOP(=O)([O-])OCC(COCC[C@@H](CCCCCCC)OC(=O)CCC/C=C\CCCCCC)NC(=O)CCCCCCCCCCCCC)NC(=O)CCCCCCCCCCCCC.[Na+].[Na+] (some centres unmarked) [compound 119329] | 2 ± 2 (n = 2) % of LPS
20 | CCCCCC/C=C\CCCC(=O)O[C@H](CCCCCCC)CCOCC(COP(=O)([O-])OCCNC(=O)C(CCCCNC(=O)OC(C)(C)C)C(=O)NCCOP(=O)([O-])OCC(COCC[C@@H](CCCCCCC)OC(=O)CCC/C=C\CCCCCC)NC(=O)CCCCCCCCCCCCC)NC(=O)CCCCCCCCCCCCC.[Na+].[Na+] (some centres unmarked) [compound 119521] | 103 % of LPS
21 | CCCCCC/C=C\CCCC(=O)O[C@H](CCCCCCC)CCOCC(COP(=O)([O-])OCCNC(=O)C(Cc1ccc(OCCN)cc1)C(=O)NCCOP(=O)([O-])OCC(COCC[C@@H](CCCCCCC)OC(=O)CCC/C=C\CCCCCC)NC(=O)CCCCCCCCCCCCC)NC(=O)CCCCCCCCCCCCC.[Na+].[Na+] (some centres unmarked) [compound 119522] | 129 % of LPS
22 | CCCCCC/C=C\CCCC(=O)O[C@H](CCCCCCC)CCOCC(COP(=O)([O-])OCCNC(=O)C(CCCCN)C(=O)NCCOP(=O)([O-])OCC(COCC[C@@H](CCCCCCC)OC(=O)CCC/C=C\CCCCCC)NC(=O)CCCCCCCCCCCCC)NC(=O)CCCCCCCCCCCCC.[Na+].[Na+] (some centres unmarked) [compound 119523] | 176 % of LPS
23 | CCCCCC/C=C\CCCC(=O)O[C@H](CCCCCCC)CCOCC(COP(=O)(O)OCCNC(=O)C(Cc1ccc(OCCNC(=O)CCCCC(=O)O)cc1)C(=O)NCCOP(=O)(O)OCC(COCC[C@@H](CCCCCCC)OC(=O)CCC/C=C\CCCCCC)NC(=O)CCCCCCCCCCCCC)NC(=O)CCCCCCCCCCCCC (some centres unmarked) [compound 803045] | 65 % of LPS
24 | CCCCCCCCCCCCCC(=O)NC(COCC[C@@H](CCCCCCC)OC(=O)CCCCCCCCCCC)COP(=O)([O-])OCCNC(=O)CC(=O)NCCOP(=O)([O-])OCC(COCC[C@@H](CCCCCCC)OC(=O)CCCCCCCCCCC)NC(=O)CCCCCCCCCCCCC.[Na+].[Na+] (some centres unmarked) [compound 803056] | 151 ± 42 % of LPS

Same assay, conditions: whole blood; vs. % of LPS at 10 ng/ml; read-out: WB ED50 vs LPS@ 10 ng/ml

Row | Compound | EC50 [nM]
25 | CCCCCCCCCCCCCC(=O)NC(COCCC(CCCCCCC)OCCCCCCCCCCCC)COP(=O)(O)OCCCCCCCCOP(=O)(O)OCC(COCCC(CCCCCCC)OCCCCCCCCCCCC)NC(=O)CCCCCCCCCCCCC (mixture of isomers) [compound 804596] | > 10000
26 | CCCCCCCCCCCCCC(=O)N[C@H](COCC[C@@H](CCCCCCC)OC(=O)CCCCCCCCCCC)COP(=O)(O)OCCNC(=O)NCCOP(=O)(O)OC[C@@H](COCC[C@@H](CCCCCCC)OC(=O)CCCCCCCCCCC)NC(=O)CCCCCCCCCCCCC [ER 804678] | 18
27 | CCCCCC/C=C\CCCC(=O)O[C@H](CCCCCCC)CCOCC(COP(=O)([O-])OCCNC(=O)CC(=O)NCCOP(=O)([O-])OCC(COCC[C@@H](CCCCCCC)OC(=O)CCC/C=C\CCCCCC)NC(=O)CCCCCCCCCCCCC)NC(=O)CCCCCCCCCCCCC.[Na+].[Na+] (some centres unmarked) [compound 118989] | 100
28 | CCCCCC/C=C\CCCC(=O)O[C@H](CCCCCCC)CCOCC(COP(=O)([O-])OCCNC(=O)CC(=O)NCCOP(=O)([O-])OCC(COCC[C@@H](CCCCCCC)OC(=O)CCC/C=C\CCCCCC)NC(=O)C[C@H](O)CCCCCCCCCCC)NC(=O)C[C@H](O)CCCCCCCCCCC.[Na+].[Na+] (some centres unmarked) [compound 119001] | 1230
29 | CCCCCCCCCCCCCC(=O)NC(COCC[C@@H](CCCCCCC)OC(=O)CCCCCCCCCCC)COP(=O)([O-])OCCNC(=O)NCCOP(=O)([O-])OCC(COCC[C@@H](CCCCCCC)OC(=O)CCCCCCCCCCC)NC(=O)CCCCCCCCCCCCC.[Na+].[Na+] (some centres unmarked) [compound 119327] | 15
